Active and inactive are the calls of the source. The rule behind the calls is not given here. Where a SMILES comes first, the peptide text is derived from it. The star is where a group is joined. Cbz = O=C(OCc1ccccc1)*
Tests used:
Cathepsin B [1] = target: T1, Cathepsin B (Homo sapiens, UniProt P07858); test: Compound was tested for its inhibitory activity against cathepsin B
[2] = target: T2, Calpain-2 catalytic subunit (Homo sapiens, UniProt P17655); test: Compound was tested for its inhibitory activity against calpain 2
T2 sequence (P17655 whole entry): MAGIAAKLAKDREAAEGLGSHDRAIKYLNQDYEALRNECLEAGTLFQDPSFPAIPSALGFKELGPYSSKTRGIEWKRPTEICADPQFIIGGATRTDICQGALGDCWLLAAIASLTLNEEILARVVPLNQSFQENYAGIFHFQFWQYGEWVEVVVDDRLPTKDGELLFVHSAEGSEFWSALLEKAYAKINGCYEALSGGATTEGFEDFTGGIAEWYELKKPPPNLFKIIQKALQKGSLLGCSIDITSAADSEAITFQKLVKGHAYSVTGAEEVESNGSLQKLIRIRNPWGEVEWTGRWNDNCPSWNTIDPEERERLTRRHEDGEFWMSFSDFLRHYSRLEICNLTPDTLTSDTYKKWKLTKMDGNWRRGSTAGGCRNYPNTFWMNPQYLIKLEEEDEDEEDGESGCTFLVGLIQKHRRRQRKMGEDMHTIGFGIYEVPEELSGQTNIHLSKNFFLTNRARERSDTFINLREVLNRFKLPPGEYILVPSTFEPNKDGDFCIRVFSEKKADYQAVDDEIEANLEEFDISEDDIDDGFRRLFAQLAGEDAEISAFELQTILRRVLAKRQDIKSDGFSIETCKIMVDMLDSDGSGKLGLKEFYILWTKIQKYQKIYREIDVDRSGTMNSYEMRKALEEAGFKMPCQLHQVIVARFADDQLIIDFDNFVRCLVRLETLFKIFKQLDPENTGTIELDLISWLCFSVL

[3] = Compound was tested for its inhibitory activity against cathepsin L
Cathepsin B [4] = target: T1, Cathepsin B; test: Ratio of Inhibitory activity against cathepsin B/cathepsin L
[5] = target: Chymotrypsinogen A (Bos taurus) (UniProt P00766); test: Compound was tested for its inhibitory activity against alpha-chymotrypsin at concentration less than 1000 ng/ml; no inhibition
[6] = target: T2, Calpain-2 catalytic subunit; test: Compound was tested for its inhibitory activity against Calpain 2

IC50 (Cathepsin B [1]) | IC50 [2] | IC50 [3] | Ratio (Cathepsin B [4]) | inhibition [5] | IC50 [6] | Structure (SMILES)
45.1 nM | – | 15.5 nM | 2.91 | inactive | – | C[C@H](NC(=O)[C@H](Cc1ccccc1)NC(=O)OCc1ccccc1)C(=O)O
17.7 nM | – | 0.78 nM | 22.7 | inactive | – | CC(C)C[C@H](NC(=O)[C@H](Cc1ccccc1)NC(=O)OCc1ccccc1)C(=O)O (Cbz-Phe-Leu-OH)
69.7 nM | – | 0.74 nM | 94.2 | inactive | 104 nM | O=C(N[C@@H](Cc1ccccc1)C(=O)N[C@@H](Cc1ccccc1)C(=O)O)OCc1ccccc1 (Cbz-Phe-Phe-OH)

Further lines, the compound ahead of its results:

Structure (SMILES) | IC50 (Cathepsin B [1]) | IC50 [2] | IC50 [3] | Ratio (Cathepsin B [4]) | inhibition [5] | IC50 [6]
CCCCOc1ccc(C[C@H](NC(=O)[C@H](Cc2ccccc2)NC(=O)OCc2ccccc2)C(=O)O)cc1 | 836 nM | 79.6 nM | 6.96 nM | 120 | – | –
COc1ccc(C[C@H](NC(=O)[C@H](Cc2ccccc2)NC(=O)OCc2ccccc2)C(=O)O)cc1 (Cbz-Phe-Tyr(Me)-OH) | 97.7 nM | 104 nM | 2.95 nM | 33.1 | inactive | –
O=C(N[C@@H](Cc1ccccc1)C(=O)N[C@@H](Cc1ccc(O)cc1)C(=O)O)OCc1ccccc1 (Cbz-Phe-Tyr-OH) | 85.1 nM | 184 nM | 0.85 nM | 100 | inactive | –
CC(=O)N[C@@H](CC(C)C)C(=O)N[C@@H](CC(C)C)C(=O)N[C@H](C=O)CCCNC(=N)N [LEUPEPTIN] | 117 nM | – | 70.3 nM | 1.66 | inactive | –
